Literature values, collected in patent publication US20160136093A9, “ENGINEERED AEROSOL PARTICLES, AND ASSOCIATED METHODS” (priority 2009, published 2016).

Tested on: non-replicating TB
Conditions: after one month, in vitro

Which “decrease in colony forming units (CFU)” value does the source give for Capreomycin here?
The value was “one to two”.
